Reference: US20220387370A1, “METHODS OF REDUCING NEUROLOGICAL DAMAGE IN WILSON DISEASE PATIENTS” (priority 2019, published 2022)
“Also recorded” adds a separate entry of the source.

Columns and labels:
patients with WD = conditions: cited from earlier work
EA.hy926 and U87MG cells = assay: Electron microscopy of mitochondrial structure; assay type: cell-based, human; conditions: electron micrographs, co-treatment with chelator
Excerpt: Electron microscopy of cells was done as previously described ([…]., et al., Cell Mol Gastroenterol Hepatol, 2018. 7(3): p. 571-596) on a 1200EX electron microscope (JEOL, […], Japan) at 60 kv. Pictures were taken with a […] digital camera (Olympus, Hamburg, Germany) and processed by the iTEM software package (analySIS FIVE, Olympus, Hamburg, Germany).

HepG2 cells [1] = assay: Cellular copper content (ICP-OES), HepG2; assay type: cell-based, human; conditions: 750 μM copper, 250 μM albumin, 750 μM chelator, vs Cu-albumin alone
Excerpt: (§1) Afterwards, cells were trypsinized and counted.

U87MG cells [2] = conditions: U87MG cells subjected to respirometry (FIG. 6A), non-toxic Cu-albumin setting
Excerpt: as §1

U87MG cells [3] = assay: High-resolution respirometry, U87MG; assay type: cell-based, human; conditions: Cu-albumin-treated, vs Cu-albumin alone
Method: Oxygen consumption was assessed by high-resolution respirometry (HRR) using the Oxygraph-2k and DatLab 7.0 (Oroboros Instruments GmbH, Innsbruck, Austria) as described previously (Pesta, D. and E. Gnaiger, Methods Mol Biol, 2012. 810: p. 25-58). Per chamber, 1.5-2×10^6 living cells were supplied in 2 mL of MiR05 buffer (0.5 mM EGTA, 3 mM MgCl2, 60 mM lactobionic acid, 20 mM taurine, 10 mM KH2PO4, 20 mM HEPES, 110 mM sucrose, 1 g/L albumin, pH 7.1) and routine respiration was measured. Addition of 2.5 μM oligomycin (inhibitor of the FOF1-ATPase) enabled the measurement of leak respiration and stepwise addition of CCCP (1 μL steps from 1 mM stock solution) allowed the determination of the maximum oxygen flux and thereby the capacity of the electron transport system (ETS). The oxygen flux was baseline-corrected for non-mitochondrial oxygen consuming processes (ROX) by the addition of 2.5 μM of the complex III-inhibitor antimycin A.

[4] = system: Zonula occludens-1 (ZO-1); assay: Immunocytochemistry staining of Zonula occludens-1 in PBCEC monolayers; assay type: cell-based, porcine; conditions: 250 μM copper and 83.3 μM albumin, 250 μM chelator
Method: Total copper was determined by ICP-MS/MS as previously described (Kopp, J. F., et al., J Trace Elem Med Biol, 2019. 54: p. 221-225). For the immunocytochemical staining of tight junction proteins, confluent PBCECs cultivated on Transwell® membrane inserts were processed as previously described ([…]., et al., Archives of Toxicology 2018. 92(2): p. 823-832). Briefly, PBCECs were fixed with formaldehyde and permeabilized using Triton X-100. After blocking of unspecific binding sites by albumin, the cells were incubated with the either anti-claudin 5 or anti-ZO-1 antibody (Zytomed Systems GmbH, Berlin, Germany). Following a second blocking step, the cells were treated with an Alexa Fluor® 488 conjugated secondary antibody (Invitrogen, Molecular Probes Inc., Eugene, USA). Hoechst 33258 (Merck, Darmstadt, Germany) was used to stain cell nuclei. Subsequently, membranes were cut out of the inserts and mounted in Aqua Poly/Mount (Polysciences Inc., Washington, USA). After a solidification period of 24 hours, the samples were evaluated using a DM6 B fluorescence microscope by Leica Microsystems CMS GmbH (Wetzlar, Germany) in combination with the Leica Application Suite X.

[5] = system: HepG2, EA.hy926, U87MG and SHSY5Y cells; assay: Toxicity of the chelator itself in a copper-free setting, CellTiter-Glo; conditions: without external Cu-albumin addition
Method: (§2) SHSY5Y (human neuroblastoma), U87MG (human astrocytoma), EA.hy926 (human endothelium) and HepG2 (human hepatocellular carcinoma) cells were from ATCC (Wesel, Germany) and were cultured in Dulbecco's Modified Eagle Medium (DMEM) supplemented with 10% FCS (Biochrom, Berlin, Germany) and 1% antibiotic-antimycotic (Life Technologies, Carlsbad, USA). All cells were maintained at 37° C. in a humidified atmosphere with 5% CO2.

Cu-albumin = Cu-albumin (Bos taurus, UniProt P02769)
Method: EPR spectra were recorded at 77 K using an ECS106 spectrometer (Brucker BioSpin, Karlsruhe, Germany) operating in X-band at about 9.5 GHz.

PBCEC monolayers = assay: Electron microscopy of tight junctions of PBCECs; assay type: cell-based, porcine; conditions: copper-treated PBCECs, electron micrographs
Method: Electron microscopy of PBCECS grown on Transwell® inserts was performed as previously described (Ye, D., K. A. Dawson, and I. Lynch, Analyst, 2015. 140(1): p. 83-97) with minor modifications. Briefly, after fixation with 2.5% glutaraldehyde, cell monolayers were post-fixed with 1% osmium tetroxide for 30 min and dehydrated by ethanol.

HepG2 cells [6] = assay: Cu-albumin cell toxicity, CellTiter-Glo, HepG2; assay type: cell-based, human
Method: as §2

EA.hy926 cells [7] = assay: Cellular copper content (ICP-OES), EA.hy926; assay type: cell-based, human
Excerpt: as §1

EA.hy926 cells [8] = assay: Cu-albumin cell toxicity, CellTiter-Glo, EA.hy926; assay type: cell-based, human
Method: as §2

Atp7b^−/− rats = assay: Chelator treatment of WD rats: copper in serum, urine and feces (ICP-OES); assay type: in vivo, rat
Method: Control Atp7b^+/- and WD Atp7b^-/- rats were fed ad libitum with normal chow (1314; 13.89 mg Cu/kg; Altromin Spezialfutter GmbH, […], Germany) and tap water. All rats were healthy at treatment start and presented no signs of acute liver damage (serum AST <200 U/L and serum bilirubin <0.5 mg/dl). […] Untreated Atp7b^+/- and Atp7b^-/- rats served as controls. Urine and feces were collected at 24-hour intervals for which rats were housed individually in metabolic cages for 4 days. After a two-day resting period off treatment in normal cages and group housing, rats were sacrificed for serum collection.

U87MG cells [9] = conditions: 750 μM chelator
Method: as §2

Cu-albumin, sequence (P02769 25-607): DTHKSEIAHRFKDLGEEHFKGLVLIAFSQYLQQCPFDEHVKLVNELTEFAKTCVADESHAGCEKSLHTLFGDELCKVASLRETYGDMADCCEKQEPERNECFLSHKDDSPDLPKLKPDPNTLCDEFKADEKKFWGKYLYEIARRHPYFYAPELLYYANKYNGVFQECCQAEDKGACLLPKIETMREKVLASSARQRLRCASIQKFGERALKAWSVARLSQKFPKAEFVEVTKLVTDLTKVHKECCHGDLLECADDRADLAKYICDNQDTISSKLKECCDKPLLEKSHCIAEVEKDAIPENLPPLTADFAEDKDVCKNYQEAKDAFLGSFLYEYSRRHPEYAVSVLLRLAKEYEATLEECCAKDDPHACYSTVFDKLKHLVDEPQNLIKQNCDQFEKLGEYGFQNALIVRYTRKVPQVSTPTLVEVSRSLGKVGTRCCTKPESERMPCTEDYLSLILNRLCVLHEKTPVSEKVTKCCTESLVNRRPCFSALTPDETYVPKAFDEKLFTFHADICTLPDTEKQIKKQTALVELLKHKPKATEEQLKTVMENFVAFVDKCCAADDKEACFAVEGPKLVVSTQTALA

For `C[N+](C)(C)CCO.C[N+](C)(C)CCO.[SH-].[SH-].[S]=[Mo]=[S]` [ALXN1840, bis-choline tetrathiomolybdate], the “reduction of mean serum non-ceruloplasmin-bound Cu (NCC)” value (patients with WD; at Week 24 compared with baseline, 28 patients with WD) is listed as 72%, the “patients with reversible liver function test elevations” value (patients with WD; mild to moderate, asymptomatic, normalized with dose reduction or interruption) is listed as 39% and the tolerability (patients with WD; most AEs mild (Grade 1) to moderate (Grade 2)) is listed as “generally well-tolerated”. For the same compound, the paradoxical neurological worsening (patients with WD; upon treatment initiation) was “No paradoxical neurological worsening was observed”, the “Cu-albumin-induced alterations of mitochondrial structure” value (EA.hy926 and U87MG cells) was “partially avoided these structural abnormalities; also recorded: partially reversed” and the cellular copper content (HepG2 cells [1]) was “highly similar cellular copper contents; also recorded: this effect was not present”. The cellular copper content (U87MG cells [2]) was “significantly lower”, the “respiratory control ratio E/L (ETS to leak respiration)” value (U87MG cells [3]) was “tendentiously; also recorded: less pronounced” and the “ZO-1 distribution (uneven, diffuse staining upon Cu-albumin)” value [4] was “could be fully protected; also recorded: prevented”. The “CellTiterGlo-assessed cell viability with chelator alone” value [5] was “becomes toxic at elevated concentrations; also recorded: dose-dependent reduction”, the “drop of signal intensity of EPR-active cupric copper” value (Cu-albumin; TPC versus Cu-albumin) was “around 50%” and the “copper redox status in the tripartite complex (EPR)” value (Cu-albumin; albumin, copper and ALXN1840) was “partial reduction of copper”. For the same compound, the “loss of electron-dense protein complexes at the cell-cell borders” value (PBCEC monolayers) was “can be prevented”, the “CellTiterGlo-assessed cell viability / Cu-albumin toxicity” value (HepG2 cells [6]; HepG2, 750 μM chelator) was “protected” and the “CellTiterGlo-assessed cell viability / Cu-albumin toxicity” value (HepG2 cells [6]; HepG2, low dose of chelator (250 μM)) was “partially rescued”. For the same compound, the cellular copper content (EA.hy926 cells [7]; EA.hy926, 750 μM copper, 250 μM albumin, 750 μM chelator, vs Cu-albumin alone) was “significantly decreased the copper content; also recorded: (significantly) lower copper content”, the cellular copper content (EA.hy926 cells [7]; EA.hy926 cells subjected to respirometry (FIG. 6A), non-toxic Cu-albumin setting) was “significantly lower” and the “CellTiterGlo-assessed cell viability / Cu-albumin toxicity” value (EA.hy926 cells [8]; EA.hy926, 750 μM chelator) was “protected”. The “CellTiterGlo-assessed cell viability / Cu-albumin toxicity” value (EA.hy926 cells [8]; EA.hy926, low dose of chelator (250 μM)) was “partially rescued”, the fecal copper excretion (Atp7b^−/− rats; during treatment) was “unchanged” and the urinary copper excretion (Atp7b^−/− rats; during treatment, urine collected over 24 h) was “lack of urinal copper excretion”. The serum copper levels (Atp7b^−/− rats; i.p. once daily for 4 consecutive days (ALXN1840 2.5 mg/kg bw, DPA 100 mg/kg bw), serum at sacrifice after resting period) was “significantly increased; also recorded: increased serum copper levels”, the “net copper excretion (urine and feces)” value (Atp7b^−/− rats; observation period of 96 hours) was “no profoundly elevated net copper excretion” and the “CellTiterGlo-assessed cell viability / Cu-albumin toxicity” value (U87MG cells [9]) was “protected”.
